Laboratory results reported in patent US20060264410A1, “19,26,27-trinor-1alpha,25-dihydroxyvitamin D3 compounds” (Wisconsin Alumni Research Foundation, priority 2005, published 2006).
Entries after “also recorded” stand apart in the source; their conditions may differ.

Experiments:
[1] = biological target: T1, vitamin D receptor (Homo sapiens, UniProt P11473); conditions: from '352, '861 and '622 patents; cited from earlier work
T1 sequence (P11473 1-427): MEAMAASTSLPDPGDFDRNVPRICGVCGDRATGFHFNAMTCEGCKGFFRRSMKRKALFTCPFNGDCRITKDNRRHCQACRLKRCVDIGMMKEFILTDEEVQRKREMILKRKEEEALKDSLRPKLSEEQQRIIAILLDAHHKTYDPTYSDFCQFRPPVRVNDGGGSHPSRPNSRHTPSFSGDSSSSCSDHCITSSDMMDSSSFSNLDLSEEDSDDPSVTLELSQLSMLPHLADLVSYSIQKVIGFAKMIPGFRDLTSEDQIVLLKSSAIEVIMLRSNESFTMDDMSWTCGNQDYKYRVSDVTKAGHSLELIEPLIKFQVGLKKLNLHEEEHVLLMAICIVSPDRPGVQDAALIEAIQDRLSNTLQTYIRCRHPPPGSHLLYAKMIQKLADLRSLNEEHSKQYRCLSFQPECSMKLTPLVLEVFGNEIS

[2] = tested on: cell differentiation; conditions: prior art; cited from earlier work
[3] = prior art; b9 values compared to 1α,25-dihydroxyvitamin D3; cited from earlier work
[4] = tested on: 24-hydroxylase (24Ohase) gene promoter; assay: In vitro transcription assay (luciferase reporter in ROS 17/2.8 cells); format: cell-based; conditions: 24Ohase promoter-luciferase, FIG. 4
Experimental: Transcription activity was measured in ROS 17/2.8 (bone) cells that were stably transfected with a 24-hydroxylase (24Ohase) gene promoter upstream of a luciferase reporter gene (Arbour et al., 1998). Cells were given a range of doses. Sixteen hours after dosing the cells were harvested and luciferase activities were measured using a luminometer. RLU=relative luciferase units.

[5] = biological target: T2, full-length recombinant rat vitamin D receptor (Rattus norvegicus, UniProt P13053); assay: Vitamin D receptor binding, competition with [3H]-1,25-(OH)2-D3; conditions: FIGS. 1 and 2
T2 construct: Full-length recombinant rat receptor was expressed in E. coli BL21(DE3) Codon Plus RIL cells; histidine tag (C); made in house; host or cells: E. coli BL21(DE3) Codon Plus RIL
T2 sequence (P13053 1-423): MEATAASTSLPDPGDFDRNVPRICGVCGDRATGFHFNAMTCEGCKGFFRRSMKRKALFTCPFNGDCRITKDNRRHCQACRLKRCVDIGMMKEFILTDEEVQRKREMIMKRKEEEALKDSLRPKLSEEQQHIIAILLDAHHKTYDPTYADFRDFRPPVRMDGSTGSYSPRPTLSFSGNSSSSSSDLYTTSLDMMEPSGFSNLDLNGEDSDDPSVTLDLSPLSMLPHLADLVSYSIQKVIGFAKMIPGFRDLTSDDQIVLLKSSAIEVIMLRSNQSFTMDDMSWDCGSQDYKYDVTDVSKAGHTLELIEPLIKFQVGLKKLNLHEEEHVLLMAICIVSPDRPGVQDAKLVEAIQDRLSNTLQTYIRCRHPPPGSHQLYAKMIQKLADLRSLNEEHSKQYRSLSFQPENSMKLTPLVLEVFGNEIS
Experimental: Full-length recombinant rat receptor was expressed in E. coli BL21(DE3) Codon Plus RIL cells and purified to homogeneity using two different column chromatography systems. The first system was a nickel affinity resin that utilizes the C-terminal histidine tag on this protein. The protein that was eluted from this resin was further purified using ion exchange chromatography (S-Sepharose Fast Flow). Aliquots of the purified protein were quick frozen in liquid nitrogen and stored at −80° C. until use. For use in binding assays, the protein was diluted in TEDK50 (50 mM Tris, 1.5 mM EDTA, pH 7.4, 5 mM DTT, 150 mM KCl) with 0.1% Chaps detergent. The receptor protein and ligand concentration was optimized such that no more than 20% of the added radiolabeled ligand was bound to the receptor.
Unlabeled ligands were dissolved in ethanol and the concentrations determined using UV spectrophotometry (1,25(OH)2D3: molar extinction coefficient=18,200 and λmax=265 nm; Analogs: molar extinction coefficient=42,000 and λmax=252 nm). Radiolabeled ligand (^3H-1,25(OH)2D3, ˜159 Ci/mmol) was added in ethanol at a final concentration of 1 nM.
Radiolabeled and unlabeled ligands were added to 100 mcl of the diluted protein at a final ethanol concentration of ≦10%, mixed and incubated overnight on ice to reach binding equilibrium. The following day, 100 mcl of hydroxylapatite slurry (50%) was added to each tube and mixed at 10-minute intervals for 30 minutes. The hydroxylapaptite was collected by centrifugation and then washed three times with Tris-EDTA buffer (50 mM Tris, 1.5 mM EDTA, pH 7.4) containing 0.5% Titron X-100. After the final wash, the pellets were transferred to scintillation vials containing 4 mL of Biosafe II scintillation cocktail, mixed and placed in a scintillation counter. Total binding was determined from the tubes containing only radiolabeled ligand.

[6] = Bone calcium mobilization (serum calcium); format: in vivo, Sprague-Dawley rats; conditions: rats, four ip doses, even at 7,020 pmol/day; FIGS. 5 and 7
Experimental: (§1) Male, weanling Sprague-Dawley rats were placed on Diet 11 (Suda et al. J. Nutr. 100:1049, 1970) (0.47% Ca) diet+vitamins AEK for one week followed by Diet 11 (0.02% Ca)+AEK for 3 weeks. The rats were then switched to a diet containing 0.47% Ca for one week followed by two weeks on the diet containing 0.02% Ca. Dose administration began during the last week on 0.02% calcium diet. Four consecutive ip doses were given approximately 24 hours apart. Twenty-four hours after the last dose, blood was collected from the severed neck and the concentration of serum calcium determined as a measure of bone calcium mobilization. The first 10 cm of the intestine was also collected for intestinal calcium transport analysis using the everted gut sac method.

[7] = tested on: HL-60 cells; assay: HL-60 differentiation (nitro blue tetrazolium reduction); format: cell-based, Human; conditions: FIG. 3
Experimental: The study drugs were dissolved in ethanol and the concentrations determined using UV spectrophotometry. Serial dilutions were prepared so that a range of drug concentrations could be tested without changing the final concentration of ethanol (≦0.2%) present in the cell cultures.
Human promyelocytic leukemia (HL60) cells were grown in RPMI-1640 medium containing 10% fetal bovine serum. The cells were incubated at 37° C. in the presence of 5% CO2.
HL60 cells were plated at 1.2×10^5 cells/mL. Eighteen hours after plating, cells in duplicate were treated with drug. Four days later, the cells were harvested and a nitro blue tetrazolium reduction assay was performed (Collins et al., 1979; J. Exp. Med. 149:969-974). The percentage of differentiated cells was determined by counting a total of 200 cells and recording the number that contained intracellular black-blue formazan deposits. Verification of differentiation to monocytic cells was determined by measuring phagocytic activity (data not shown).

[8] = Intestinal calcium transport (everted gut sac method); format: in vivo, Sprague-Dawley rats; conditions: rats, four ip doses; FIGS. 6 and 8
Experimental: as §1

Compound	binding activity to the vitamin D receptor [1]	cell differentiation activity [2]	calcemic / calcium mobilizing activity [3]	activity in causing transcription compared with 1α,25-dihydroxyvitamin D3 [4]	activity in binding to the vitamin D receptor compared with 1α,25-dihydroxyvitamin D3 [5]	calcemic activity measured by bone calcium mobilization [6]	activity in inducing differentiation of HL-60 cells compared with 1α,25-dihydroxyvitamin D3 [7]	intestinal calcium transport [8]
1α-hydroxy-2-methylene-19-nor-(20S)-homopregnacalciferol	relatively high binding activity	relatively high cell differentiation activity	little if any calcemic activity					
1α-hydroxy-2-methylene-19-nor-bishomopregnacalciferol	relatively high binding activity	relatively high cell differentiation activity	little if any calcemic activity					
C[C@H](CCCC(C)(C)O)[C@H]1CC[C@H]2/C(=C/C=C3C[C@@H](O)C[C@H](O)C3)CCC[C@]12C [1α,25-dihydroxy-19-nor-vitamin D3]		high potency	very low calcium mobilizing activity					
C=C1[C@H](O)CC(=C/C=C2\CCC[C@]3(C)[C@@H](CC)CC[C@@H]23)C[C@H]1O [1α-Hydroxy-2-methylene-19-nor-pregnacalciferol]	relatively high binding activity	relatively high cell differentiation activity	little if any calcemic activity					
C=C1[C@H](O)CC(=C/C=C2\CCC[C@]3(C)[C@@H]([C@@H](C)CCCCO)CC[C@@H]23)C[C@H]1O [BM, 2-methylene-19,26,27-trinor-(20S)-1α,25-dihydroxyvitamin D3]				slightly less activity	slightly less active	no calcemic activity	only slightly less active; also recorded: about the same activity	do not elevate intestinal calcium transport
CC(CCCCO)C1CCC2C(=CC=C3CC(O)C(C)C(O)C3)CCCC21C [P10, 2α-methyl-19,26,27-trinor-(20S)-1α,25-dihydroxyvitamin D3]				slightly less activity	slightly more active	no calcemic activity	less activity	do not elevate intestinal calcium transport
CC1[C@H](O)CC(=C/C=C2\CCC[C@]3(C)[C@@H]([C@@H](C)CCCCO)CC[C@@H]23)C[C@H]1O (stereo partly drawn) [T-74, 2β-methyl-19,26,27-trinor-(20S)-1α,25-dihydroxyvitamin D3]				significantly less activity	significantly less active	no calcemic activity	significantly less activity	do not elevate intestinal calcium transport
